In patent EP0889886B1, “NOVEL PHENANTHRIDINES SUBSTITUTED IN THE 6 POSITION” (ALTANA Pharma AG, priority 1996, dated 1997):

test system: PDE IV; assay: Inhibition of PDE IV activity (method of Bauer and Schwabe, adapted to microtiter plates); format: biochemical; details: Hemmung der PDE IV-Aktivität
Description: Hierbei erfolgt im ersten Schritt die PDE-Reaktion. In einem zweiten Schritt wird das entstandene 5'-Nukleotid durch eine 5'-Nukleotidase des Schlangengiftes von Crotalus Atrox zum ungeladenen Nukleosid gespalten. Im dritten Schritt wird das Nukleosid auf lonenaustauschsäulen vom verbliebenen geladenen Substrat getrennt. Die Säulen werden mit 2 ml 30 mM Ammoniumformiat (pH 6,0) direkt in Minivials eluiert, in die noch 2 ml Szintillatorflüssigkeit zur Zählung gegeben wird.

| SMILES | -log IC50 |
| --- | --- |
| CCOc1cc2c(cc1OC)C(c1ccc(NC(C)=O)cc1)=N[C@H]1CCCC[C@@H]21 (racemic) [Verbindung 32, (+/-)-cis-9-Ethoxy-8-methoxy-6-(4-acetamidophenyl)-1,2,3,4,4a,10b-hexahydrophenanthridin] | 8.38 |
| CCOc1cc2c(cc1OCC)[C@@H]1CCCC[C@@H]1N=C2c1ccc(Cc2ccccc2)cc1 (racemic) [Verbindung 14, (+/-)-cis-6-(4-Benzylphenyl)-8,9-diethoxy-1,2,3,4,4a,10b-hexahydrophenanthridin] | 8.08 |
| CCOc1cc2c(cc1OCC)[C@H]1CCCC[C@H]1N=C2c1ccc(F)cc1 (racemic) [Verbindung 16, (+/-)-cis-8,9-Diethoxy-6-(4-fluorphenyl)-1,2,3,4,4a,10b-hexahvdrophenanthridin] | 7.93 |
| COc1cc2c(cc1OC1CCCC1)[C@H]1CCCC[C@H]1N=C2c1ccc(NS(=O)(=O)c2ccc(C)cc2)cc1 (racemic) [Verbindung 3, (+/-)-cis-9-Cyclopentyloxy-8-methoxy-6-(4-p-toluolsulfonamidophenyl)-1,2,3,4,4a,10bhexahydrophenanthridin] | 7.76 |
| CCOc1cc2c(cc1OCC)[C@H]1CCCC[C@H]1N=C2c1ccc(OC(F)(F)F)cc1 (racemic) [Verbindung 19, (+/-)-cis-8,9-Diethoxy-6-(4-trifluormethoxyphenyl)-1,2,3,4,4a,10b-hexahydrophenanthridin] | 7.97 |
| CCOc1cc2c(cc1OCC)[C@@H]1CCCC[C@@H]1N=C2c1ccc(O)cc1 (racemic) [Verbindung 37, (+/-)-cis-8,9-Diethoxy-6-(4-hydroxyphenyl)-1,2,3,4,4a,10b-hexahydrophenanthridin] | 8.04 |
| COc1cc2c(cc1OC)C1C3CCC(CC3)C1N=C2c1ccc(NS(=O)(=O)c2ccc(C)cc2)cc1 (racemic) [Verbindung 12, (+/-)-trans-8,9-Dimethoxy-1,4-ethano-6-(4-p-toluolsulfonamidophenyl)-1,2,3,4,4a,10bhexahydrophenanthridin] | 5.77 |
| COc1cc2c(cc1OC)[C@@H]1CCCC[C@@H]1N=C2c1ccc([N+](=O)[O-])cc1 (racemic) [Verbindung 5, (+/-)-cis-8,9-Dimethoxy-6-(4-nitrophenyl)-1,2,3,4,4a,10b-hexahydrophenanthridin] | 7.22 |
| COc1cc2c(cc1OC)[C@@H]1CCCC[C@@H]1N=C2c1ccc(NC(C)=O)cc1 (racemic) [Verbindung 31, (+/-)-cis-8,9-Dimethoxy-6-(4-acetamidophenyl)-1,2,3,4,4a,10b-hexahydrophenanthridin] | 7.30 |
| CCOc1cc2c(cc1OCC)[C@@H]1CCCC[C@@H]1N=C2c1cccnc1.Cl (racemic) [Verbindung 25, (+/-)-cis-8,9-Diethoxy-6-(pyrid-3-yl)-1,2,3,4,4a,10b-hexahydrophenanthridin-hydrochlorid] | 7.96 |
| COc1cc2c(cc1OC)[C@H]1CCCC[C@H]1N=C2c1ccc(N(S(=O)(=O)c2ccc(C)cc2)S(=O)(=O)c2ccc(C)cc2)cc1 (racemic) [Verbindung 33, (+/-)-cis-8,9-Dimethoxy-6-[4-bis(p-toluolsulfonyl)aminophenyl]-1,2,3,4,4a,10b-hexahydrophenanthridin] | 7.27 |
| COc1cc2c(cc1OC)[C@H]1CCCC[C@H]1N=C2c1c(Cl)cccc1Cl (racemic) [Verbindung 6, (+/-)-cis-8,9-Dimethoxy-6-(2,6-dichlorphenyl)-1,2,3,4,4a,10b-hexahydrophenanthridin] | 6.77 |
| CCOc1cc2c(cc1OC)C(c1ccc(NS(=O)(=O)c3ccc(C)cc3)cc1)=N[C@@H]1CCCC[C@H]21 (racemic) [Verbindung 20, (+/-)-cis-9-Ethoxy-8-methoxy-6-(4-p-toluolsulfonamidophenyl)-1,2,3,4,4a,10b-hexahydrophenanthridin] | 9.05 |
